According to PubChem BioAssay AID298 (DTP/NCI, 2004):
Several values for one entry are separate records, joined by “and”; a condition that tells them apart may be missing. Equal entries are not always repeated. Records with an inconclusive call do not appear.

Tested on: MX-1 breast xenograft, intrarenal, nude mice, tumor weight
Test: NCI In Vivo Anticancer Drug Screen. Data for tumor model Human Mammary Carcinoma MX-1 Xenograft (intrarenal inoculation) in NU/NU BALB/C (nude) mice
Settings: endpoint: mean tumor weight change, higher = larger tumour
Summary of the method: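 Transplantable tumors established in mice; animals dosed with compound or vehicle; survival or tumor size then recorded. Result reported as treated (T) divided by vehicle control (C).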

[1] = dose: 100.0 mg/kg/injection, schedule: Q04DX003 (ip), vehicle: saline with Tween-80
[2] = dose: 200.0 mg/kg/injection, schedule: Q04DX003 (ip), vehicle: saline with Tween-80
[3] = dose: 12.5 mg/kg/injection, schedule: Q04DX003 (ip), vehicle: saline with Tween-80

`c1ccc2c(c1)[As]=c1ccccc1=[As]2` (stereo not given) was tested, and the T/C (dose: 75.0 mg/kg/injection, schedule: Q04DX003 (sc), vehicle: saline) was 108 % of control, the T/C (dose: 150.0 mg/kg/injection, schedule: Q04DX003 (sc), vehicle: saline) was 87 % of control and the T/C (dose: 300.0 mg/kg/injection, schedule: Q04DX003 (sc), vehicle: saline) was 99 % of control.
For `COc1ccc(N=C(C)C2C(=O)c3ccccc3C2=O)cc1`, the T/C (dose: 150.0 mg/kg/injection, schedule: Q04DX003 (ip), vehicle: DMSO) was 93 % of control, the T/C (dose: 300.0 mg/kg/injection, schedule: Q04DX003 (ip), vehicle: DMSO) was 98 % of control and the T/C (dose: 600.0 mg/kg/injection, schedule: Q04DX003 (ip), vehicle: DMSO) was 110 % of control. The T/C (dose: 1200.0 mg/kg/injection, schedule: Q04DX003 (ip), vehicle: DMSO) was 105 % of control.
With `O=S(=O)(c1cccc(N=C=S)c1)c1cccc(N=C=S)c1` the T/C (dose: 50.0 mg/kg/injection, schedule: Q04DX003 (ip), vehicle: Klucel (hydroxypropylcellulose) (HPC)) was 121 % of control, the T/C (dose: 100.0 mg/kg/injection, schedule: Q04DX003 (ip), vehicle: Klucel (hydroxypropylcellulose) (HPC)) was 83 % of control and the T/C (dose: 200.0 mg/kg/injection, schedule: Q04DX003 (ip), vehicle: Klucel (hydroxypropylcellulose) (HPC)) was 82 % of control.
For `NC(Cc1ccc(N(CCCl)Cc2ccccc2)cc1)C(=O)O` (stereo not given), the T/C [1] was 6 % of control and 14 % of control, the T/C (dose: 120.0 mg/kg/injection, schedule: Q04DX003 (ip), vehicle: saline with Tween-80) was 3 % of control and the T/C [2] was 7 % of control and -15 % of control. For the same molecule, the T/C (dose: 333.33 mg/kg/injection, schedule: Q04DX003 (ip), vehicle: saline with Tween-80) was -90 % of control.
In the case of `CNC=O`, the T/C (dose: 100.0 mg/kg/injection, schedule: Q01DX010 (sc), vehicle: saline) is reported as 47 % of control and the T/C (dose: 200.0 mg/kg/injection, schedule: Q01DX010 (sc), vehicle: saline) is reported as 10 % of control.
For `Cc1nn(CCO)c(C)c1N=[N+]([O-])c1c(C)nn(CCO)c1C`, the T/C (dose: 300.0 mg/kg/injection, schedule: Q04DX003 (sc), vehicle: Klucel (hydroxypropylcellulose) (HPC)) was 109 % of control, the T/C (dose: 600.0 mg/kg/injection, schedule: Q04DX003 (sc), vehicle: Klucel (hydroxypropylcellulose) (HPC)) was 85 % of control and the T/C (dose: 1200.0 mg/kg/injection, schedule: Q04DX003 (sc), vehicle: Klucel (hydroxypropylcellulose) (HPC)) was 102 % of control. The T/C (dose: 2400.0 mg/kg/injection, schedule: Q04DX003 (sc), vehicle: Klucel (hydroxypropylcellulose) (HPC)) was 90 % of control.
`N[C@@H](C[C@H]1CCC(=O)[C@@H]2O[C@H]12)C(=O)O` was tested, and the T/C (dose: 150.0 mg/kg/injection, schedule: Q04DX003 (ip), vehicle: saline) was 94 % of control, the T/C (dose: 150.0 mg/kg/injection, schedule: Q04DX003 (ip), vehicle: suspension in saline) was 100 % of control and the T/C (dose: 300.0 mg/kg/injection, schedule: Q04DX003 (ip), vehicle: saline) was 90 % of control. The T/C (dose: 300.0 mg/kg/injection, schedule: Q04DX003 (ip), vehicle: suspension in saline) was 75 % of control, the T/C (dose: 600.0 mg/kg/injection, schedule: Q04DX003 (ip), vehicle: saline) was 104 % of control and the T/C (dose: 600.0 mg/kg/injection, schedule: Q04DX003 (ip), vehicle: suspension in saline) was 82 % of control. The T/C (dose: 1200.0 mg/kg/injection, schedule: Q04DX003 (ip), vehicle: saline) was 47 % of control and the T/C (dose: 1200.0 mg/kg/injection, schedule: Q04DX003 (ip), vehicle: suspension in saline) was 62 % of control.
For `S=C(N/N=C1/CCCC/C1=N/NC(=S)N1CCOCC1)N1CCOCC1`, the T/C (dose: 6.25 mg/kg/injection, schedule: Q04DX003 (ip), vehicle: saline with Tween-80) was 81 % of control, the T/C [3] was 76 % of control and the T/C (dose: 25.0 mg/kg/injection, schedule: Q04DX003 (ip), vehicle: saline with Tween-80) was 48 % of control.
With `COC(=O)NC1C(C)OC(OC2C/C=C(/C)C3C=CC4C(OC5CC(OC6CC(O)C(OC7CC(O)C(OC)C(C)O7)C(C)O6)C(O)C(C)O5)C(C)CC(C)C4C3(C)/C(O)=C3\C(=O)OC4(CC(C)C(CO)=CC4/C=C\2C)C3=O)CC1(C)[N+](=O)[O-]` (stereo not given) the T/C (dose: 75.0 mg/kg/injection, schedule: Q04DX003 (ip), vehicle: Klucel (hydroxypropylcellulose) (HPC)) was 110 % of control and the T/C (dose: 150.0 mg/kg/injection, schedule: Q04DX003 (ip), vehicle: Klucel (hydroxypropylcellulose) (HPC)) was 108 % of control.
For `Cc1ccc(C2=CSC3=NCCN23)cc1Cl`, the T/C (dose: 37.5 mg/kg/injection, schedule: Q04DX003 (ip), vehicle: saline) was 85 % of control.
With `Cc1cc(N)c2ccccc2[n+]1CCCCCCCCCC[n+]1c(C)cc(N)c2ccccc21` the T/C (dose: 0.75 mg/kg/injection, schedule: Q01DX010 (ip), vehicle: dextrose) was 89 % of control, the T/C (dose: 1.5 mg/kg/injection, schedule: Q01DX010 (ip), vehicle: dextrose) was 79 % of control and the T/C (dose: 2.0 mg/kg/injection, schedule: Q01DX010 (ip), vehicle: dextrose) was 47 % of control. For the same molecule, the T/C (dose: 3.0 mg/kg/injection, schedule: Q01DX010 (ip), vehicle: dextrose) was 41 % of control.
For `CNC(=O)OCc1nc(SC)n(C)c1COC(=O)NC`, the T/C (dose: 28.75 mg/kg/injection, schedule: Q04DX003 (ip), vehicle: saline) was -91 % of control, the T/C (dose: 57.5 mg/kg/injection, schedule: Q04DX003 (ip), vehicle: saline) was -85 % of control and the T/C (dose: 115.0 mg/kg/injection, schedule: Q04DX003 (ip), vehicle: saline) was -63 % of control.
For `O=c1n(CC2CO2)c(=O)n(CC2CO2)c(=O)n1CC1CO1` (stereo not given), the T/C (dose: 25.0 mg/kg/injection, schedule: Q01DX010 (sc), vehicle: saline) was 37 % of control, the T/C (dose: 25.0 mg/kg/injection, schedule: Q04DX003 (sc), vehicle: suspension in saline) was 18 % of control and the T/C (dose: 50.0 mg/kg/injection, schedule: Q04DX003 (sc), vehicle: suspension in saline) was -100 % of control.
In the case of `NC(=O)c1c[se]c(C2OC(CO)C(O)C2O)n1` (stereo not given), the T/C (dose: 75.0 mg/kg/injection, schedule: Q04DX003 (ip), vehicle: water) is reported as 88 % of control, the T/C (dose: 150.0 mg/kg/injection, schedule: Q04DX003 (ip), vehicle: water) is reported as 61 % of control and the T/C (dose: 300.0 mg/kg/injection, schedule: Q04DX003 (ip), vehicle: water) is reported as 50 % of control. For the same molecule, the T/C (dose: 600.0 mg/kg/injection, schedule: Q04DX003 (ip), vehicle: water) was 43 % of control.
With `CC(C)c1cc(C(=O)O)c(O)c(C(C)C)c1.CC(C)c1cc(C(=O)O)c(O)c(C(C)C)c1.[Cu]` the T/C [3] was 74 % of control, the T/C (dose: 50.0 mg/kg/injection, schedule: Q04DX003 (ip), vehicle: saline with Tween-80) was 116 % of control and the T/C [1] was 90 % of control.
For `CC1=C(/C=C/C(C)=C/C=C/C(C)=C/C(=O)Nc2ccc(O)cc2)C(C)(C)CCC1`, the T/C [1] was 67 % of control, the T/C [2] was 81 % of control and the T/C (dose: 400.0 mg/kg/injection, schedule: Q04DX003 (ip), vehicle: saline with Tween-80) was 58 % of control. For the same molecule, the T/C (dose: 800.0 mg/kg/injection, schedule: Q04DX003 (ip), vehicle: saline with Tween-80) was 69 % of control.
In the case of `C=C/C(C)=C/[C@H](C)C(=O)C[C@H](O)CC1CC(=O)NC(=O)C1`, the T/C (dose: 300.5 mg/kg/injection, schedule: Q04DX003 (sc), vehicle: water) is reported as 73 % of control, the T/C (dose: 600.0 mg/kg/injection, schedule: Q04DX003 (sc), vehicle: water) is reported as 98 % of control and the T/C (dose: 1200.0 mg/kg/injection, schedule: Q04DX003 (sc), vehicle: water) is reported as 89 % of control.
In the case of `CO[C@H]1C[C@@H]2CC[C@@H](C)[C@@](O)(O2)C(=O)C(=O)N2CCCC[C@H]2C(=O)O[C@H]([C@H](C)C[C@@H]2CC[C@@H](O)[C@H](OC)C2)CC(=O)[C@H](C)C=C(C)[C@@H](O)[C@@H](OC)C(=O)[C@H](C)C[C@H](C)/C=C/C=C/C=C1C`, the T/C (dose: 100.0 mg/kg/injection, schedule: Q01DX010 (sc), vehicle: saline with Tween-80) is reported as 30 % of control, the T/C (dose: 200.0 mg/kg/injection, schedule: Q01DX010 (sc), vehicle: saline with Tween-80) is reported as 22 % of control and the T/C (dose: 400.0 mg/kg/injection, schedule: Q01DX010 (sc), vehicle: saline with Tween-80) is reported as 54 % of control. The T/C (dose: 800.0 mg/kg/injection, schedule: Q01DX010 (sc), vehicle: saline with Tween-80) was 54 % of control.
For `CCN(CC)CCn1[nH]c2c3ccc(=O)cc3sc3c(NCCN)ccc1c32`, the T/C (dose: 3.12 mg/kg/injection, schedule: Q04DX003 (ip), vehicle: water) was 26 % of control and 40 % of control, the T/C (dose: 6.25 mg/kg/injection, schedule: Q04DX003 (ip), vehicle: water) was 35 % of control and 38 % of control and 42 % of control and the T/C (dose: 25.0 mg/kg/injection, schedule: Q04DX003 (ip), vehicle: water) was 50 % of control.
With `NNC(=S)N/N=C/c1ccccn1` the T/C (dose: 15.0 mg/kg/injection, schedule: Q04DX003 (sc), vehicle: saline with Tween-80) was 116 % of control, the T/C (dose: 30.0 mg/kg/injection, schedule: Q04DX003 (sc), vehicle: saline with Tween-80) was 96 % of control and the T/C (dose: 60.0 mg/kg/injection, schedule: Q04DX003 (sc), vehicle: saline with Tween-80) was 123 % of control.
In the case of `OC1(CSc2ccccc2)CCCCC1`, the T/C (dose: 300.0 mg/kg/injection, schedule: Q04DX003 (sc), vehicle: saline with Tween-80) is reported as 98 % of control and the T/C (dose: 600.0 mg/kg/injection, schedule: Q04DX003 (sc), vehicle: saline with Tween-80) is reported as 112 % of control.
